One series concerns the target α4β2 nAChR (Homo sapiens, UniProt P17787+P43681). Particulars: antagonistic activity, TEVC; value (95% CI); read-out: nAChR subtype (nM; 95% CI) α4β2 (human); cited from earlier work.
For series [1], the target named is muscle (α1)2βγδ nAChR subtype (Torpedo marmorata, UniProt P02711+Q6S3H8+Q6S3H9). The conditions noted are these: antagonistic activity, TEVC; value (95% CI); read-out: nAChR subtype (nM; 95% CI) α12β1γδ (Torpedo); cited from earlier work.
Series [2] has as its target T1, human α7 nAChR subtype (Homo sapiens, UniProt P36544).
T1 construct: expressed in transfected cells; host or cells: Xenopus laevis oocytes injected with mRNA
Particulars: antagonistic activity, TEVC; value (95% CI); cited from earlier work.

Series [3] concerns the target T1, human α7 nAChR subtype. The experiment in a line: Two-electrode voltage clamp electrophysiology on Xenopus laevis oocytes expressing the α7 nAChR. It is filed as cell-based. An excerpt:
The emerging cyclic imines toxins (CiTXs) of global distribution across coastal environments that are produced by dinoflagellates move fast up the human food chain through shellfish. The CiTX family includes 44 compounds: 7 gymnodimines (A-E, 12-methylgymnodimine and 16-desmethyl gymnodimine D), 16 spirolides (A-D, G-I, 13-desmethyl spirolide-C, 27-Hydroxy-13-desmethyl spirolide-C, 13,19-didesmethyl spirolide-C, 20-hydroxy-13,19-didesmethyl spirolide- C, 27-hydroxy-13,19-spirolide-C, 27-Oxo-13,19-didesmethyl spirolide-C, 13-desmethyl spirolide-D, 20-hydroxy-13,19-didesmethyl spirolide-D and 20-methyl spirolide-G), 8 pinnatoxins (A-H), 3 pteriatoxins (A-C), 6 prorocentrolides (A-B, 4- hydroxyprorocentrolide, 9,51-dihydro prorocentrolide, 30-sulfate prorocentrolide and 14-O-acetyl-4-hydroxyprorocentrolide), 1 spiroprorocentrimine, 2 portimines (A and B), and 1 kabirimine, (Aráoz et al. (2020) Cyclic imine toxins survey in coastal european shellfish samples: Bioaccumulation and mode of action of 28-O-palmitoyl ester of pinnatoxin-G. First report of portimine-A bioaccumulation. Harmful Algae, 98 [1]). The spiroimine moiety is the major feature characterizing cyclic imine toxins. The exception to this rule is prorocentrolides in which a hexahydroisoquinoline group replaces the spiroimine motif, (Torigoe et al. (1988) Prorocentrolide, a toxic nitrogenous macrocycle from a marine dinoflagellate, Prorocentrum-lima. Journal of the American Chemical Society, 110:7876-7877 [2]). Portimines display a 5-membered cyclic imine ring; gymnodimines, prorocentrolides, spiroprorocentrimines and kabirimine present a 6-membered imine ring, while spirolides, pinnatoxins and pteriatoxins display a 7-membered imine ring. Cyclic imine toxins are fast acting neurotoxins that, when administered intraperitoneally or by gavage at lethal doses, kill mice by respiratory arrest within minutes following blockade of neuromuscular nicotinic acetylcholine receptors (nAChR). The mode of action of several cyclic imines on nAChRs has been characterized, namely: gymnodimine-A, 13- desmethyl spirolide- C, 13,19-didesmethyl spirolide-C, 20-methyl spirolide-G, pinnatoxin-A, pinnatoxin-G, prorocentrolide-A and portimine, (Lamoise et al. (2017) Physico-chemical and functional characterization of portimine purified from Vulcanodinium rugosum strain IFR-VRU-01. In "Marine and Fresh-Water Harmful Algae". Proceedings of the 17th International Conference on Harmful Algae (Proença, L.A.O. and Hallegraeff, G. eds) pp. 126-129 ISSHA and IOC/UNESCO, Florianapolis; Molgó et al. (2017) Cyclic imine toxins from dinoflagellates: a growing family of potent antagonists of the nicotinic acetylcholine receptors. Journal of Neurochemistry, 142:41-51 [4]). They are potent antagonists of muscular and neuronal nicotinic acetylcholine receptors with pinnatoxin-A displaying picomolar affinities towards the α7 nicotinic acetylcholine receptor subtype (Aráoz et al. (2011) Total synthesis of pinnatoxins A and G and revision of the mode of action of pinnatoxin A. Journal of the American Chemical Society 133(27):10499-10511 [5]). In contrast, prorocentrolide and portimine show micromolar affinities towards the α7 nicotinic acetylcholine receptor subtype (Lamoise et al. (2017), Stivala et al. (2015) Synthesis and biology of cyclic imine toxins, an emerging class of potent, globally distributed marine toxins. Natural Product Reports, 32(3):411-435 [6]) (Table1). Table 1. Antagonistic activity of CiTX (Two-Electrodes Voltage Clamp electrophysiology).
• Figure 1 represents the chemical structure of ingrilimine according to compound (Illa) formula. • Figure 2 represents the cytotoxic activity of ingrilimine. A2780 ovarian and HT29 colorectal carcinoma cells were grown in RPMI 1640 supplemented with 10% fetal calf serum (FCS) and 1% glutamine. […]
(In two-electrode clamp one electrode senses voltage and the other passes current.)

A further series concerns P338 leukemia cell line. The conditions noted are these: mouse P338 leukemia cell line; cited from earlier work.
Series [4] concerns 3T3, L929, 4T1 and Caco-2 cells. Particulars: normal cell lines 3T3 and L929, tumor cell line 4T1, Caco-2 cells; cited from earlier work.
The next series relates to cancer cell lines. Particulars: literature (Tang et al. 2023; Fribley et al. 2019); cited from earlier work.

The values below come from patent EP4624457A1, “I[…] DERIVATIVES, I[…] NEURODEGENERATIVE DISEASES” (Centre National de la Recherche Scientifique, priority 2024, dated 2025).

A value given as a limit tells only on which side of the number the result lay.

T1 sequence (P36544 23-502): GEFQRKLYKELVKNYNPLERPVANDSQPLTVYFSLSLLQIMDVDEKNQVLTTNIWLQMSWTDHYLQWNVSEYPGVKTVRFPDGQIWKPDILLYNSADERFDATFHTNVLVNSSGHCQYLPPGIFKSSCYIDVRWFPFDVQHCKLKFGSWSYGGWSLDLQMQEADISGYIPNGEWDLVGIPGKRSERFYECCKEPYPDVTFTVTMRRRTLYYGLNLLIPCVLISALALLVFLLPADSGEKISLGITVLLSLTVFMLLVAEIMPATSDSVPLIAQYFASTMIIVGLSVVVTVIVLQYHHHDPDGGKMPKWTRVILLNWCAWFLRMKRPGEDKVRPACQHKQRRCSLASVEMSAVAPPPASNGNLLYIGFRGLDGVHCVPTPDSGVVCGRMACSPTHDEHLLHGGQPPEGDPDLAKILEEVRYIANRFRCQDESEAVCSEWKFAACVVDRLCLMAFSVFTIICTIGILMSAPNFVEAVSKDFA
α4β2 nAChR, sequence (P43681 29-627): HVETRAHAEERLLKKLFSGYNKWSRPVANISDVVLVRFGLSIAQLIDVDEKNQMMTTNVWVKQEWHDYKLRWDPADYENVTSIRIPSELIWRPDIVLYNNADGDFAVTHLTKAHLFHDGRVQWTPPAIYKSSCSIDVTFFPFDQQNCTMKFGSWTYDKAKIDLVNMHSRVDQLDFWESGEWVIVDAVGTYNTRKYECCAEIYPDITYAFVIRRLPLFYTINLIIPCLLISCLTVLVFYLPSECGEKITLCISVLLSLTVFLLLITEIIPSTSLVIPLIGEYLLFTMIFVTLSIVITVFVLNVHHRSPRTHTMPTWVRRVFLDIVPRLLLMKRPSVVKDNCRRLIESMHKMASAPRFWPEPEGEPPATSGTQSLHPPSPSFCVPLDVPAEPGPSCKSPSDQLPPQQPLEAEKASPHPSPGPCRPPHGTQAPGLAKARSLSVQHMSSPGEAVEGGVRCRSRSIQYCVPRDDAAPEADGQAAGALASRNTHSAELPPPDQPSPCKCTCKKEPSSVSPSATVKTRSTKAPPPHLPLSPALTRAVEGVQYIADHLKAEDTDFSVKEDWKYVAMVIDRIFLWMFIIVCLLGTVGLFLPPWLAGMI
α4β2 nAChR, sequence (P17787 26-502): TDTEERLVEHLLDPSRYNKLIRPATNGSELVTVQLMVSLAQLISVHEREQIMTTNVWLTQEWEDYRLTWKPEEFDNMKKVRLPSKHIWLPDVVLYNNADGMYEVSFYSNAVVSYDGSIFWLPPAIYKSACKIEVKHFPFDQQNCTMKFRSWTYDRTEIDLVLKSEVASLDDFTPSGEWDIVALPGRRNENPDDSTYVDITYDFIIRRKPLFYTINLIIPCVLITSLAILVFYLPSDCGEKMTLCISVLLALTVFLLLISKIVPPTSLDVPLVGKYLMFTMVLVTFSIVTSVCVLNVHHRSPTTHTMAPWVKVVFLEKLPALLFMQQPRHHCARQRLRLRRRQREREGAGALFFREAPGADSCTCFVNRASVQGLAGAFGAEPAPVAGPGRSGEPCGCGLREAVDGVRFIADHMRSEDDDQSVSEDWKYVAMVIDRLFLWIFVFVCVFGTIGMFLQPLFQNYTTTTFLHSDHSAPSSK
muscle (α1)2βγδ nAChR subtype, sequence (P02711 25-461): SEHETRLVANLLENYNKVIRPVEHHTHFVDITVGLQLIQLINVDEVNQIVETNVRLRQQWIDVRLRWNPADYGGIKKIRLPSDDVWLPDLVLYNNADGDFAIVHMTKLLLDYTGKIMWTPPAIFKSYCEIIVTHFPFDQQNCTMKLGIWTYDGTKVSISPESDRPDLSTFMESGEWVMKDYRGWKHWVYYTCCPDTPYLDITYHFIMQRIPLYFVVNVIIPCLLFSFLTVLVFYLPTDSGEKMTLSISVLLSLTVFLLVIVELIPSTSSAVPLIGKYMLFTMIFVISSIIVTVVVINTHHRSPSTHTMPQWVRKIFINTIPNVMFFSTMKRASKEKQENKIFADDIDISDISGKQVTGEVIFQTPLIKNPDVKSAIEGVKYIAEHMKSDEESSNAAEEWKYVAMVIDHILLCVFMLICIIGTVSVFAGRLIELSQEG
muscle (α1)2βγδ nAChR subtype, sequence (Q6S3H9 entry or part of it): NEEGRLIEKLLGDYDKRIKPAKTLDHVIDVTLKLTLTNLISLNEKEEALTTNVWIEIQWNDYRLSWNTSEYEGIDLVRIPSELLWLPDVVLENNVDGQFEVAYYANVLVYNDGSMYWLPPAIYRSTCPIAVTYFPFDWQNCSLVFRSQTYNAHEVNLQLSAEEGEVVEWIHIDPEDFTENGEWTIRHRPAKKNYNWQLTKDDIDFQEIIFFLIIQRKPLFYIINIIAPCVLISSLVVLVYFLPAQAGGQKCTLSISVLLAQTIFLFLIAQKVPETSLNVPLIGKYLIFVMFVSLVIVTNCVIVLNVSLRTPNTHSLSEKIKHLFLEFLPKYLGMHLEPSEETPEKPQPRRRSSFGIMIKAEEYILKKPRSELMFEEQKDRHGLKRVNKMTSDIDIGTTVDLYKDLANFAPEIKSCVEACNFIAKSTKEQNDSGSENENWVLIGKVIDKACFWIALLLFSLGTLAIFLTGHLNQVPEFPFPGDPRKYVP
muscle (α1)2βγδ nAChR subtype, sequence (Q6S3H8 entry or part of it): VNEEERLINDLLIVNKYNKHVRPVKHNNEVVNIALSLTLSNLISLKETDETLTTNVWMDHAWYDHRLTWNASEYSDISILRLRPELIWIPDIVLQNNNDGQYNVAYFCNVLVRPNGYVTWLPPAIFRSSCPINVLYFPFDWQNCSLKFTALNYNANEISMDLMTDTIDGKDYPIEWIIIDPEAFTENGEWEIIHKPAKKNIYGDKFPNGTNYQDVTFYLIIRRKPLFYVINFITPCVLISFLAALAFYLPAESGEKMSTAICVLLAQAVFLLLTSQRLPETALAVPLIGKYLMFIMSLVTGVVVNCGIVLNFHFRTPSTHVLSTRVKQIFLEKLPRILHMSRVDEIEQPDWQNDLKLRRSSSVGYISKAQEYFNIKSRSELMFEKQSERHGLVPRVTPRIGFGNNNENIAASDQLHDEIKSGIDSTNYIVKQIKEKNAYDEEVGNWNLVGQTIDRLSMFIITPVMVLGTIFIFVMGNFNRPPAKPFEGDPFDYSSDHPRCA
muscle (α1)2βγδ nAChR subtype, sequence (Q6S3I0 entry or part of it, further chain): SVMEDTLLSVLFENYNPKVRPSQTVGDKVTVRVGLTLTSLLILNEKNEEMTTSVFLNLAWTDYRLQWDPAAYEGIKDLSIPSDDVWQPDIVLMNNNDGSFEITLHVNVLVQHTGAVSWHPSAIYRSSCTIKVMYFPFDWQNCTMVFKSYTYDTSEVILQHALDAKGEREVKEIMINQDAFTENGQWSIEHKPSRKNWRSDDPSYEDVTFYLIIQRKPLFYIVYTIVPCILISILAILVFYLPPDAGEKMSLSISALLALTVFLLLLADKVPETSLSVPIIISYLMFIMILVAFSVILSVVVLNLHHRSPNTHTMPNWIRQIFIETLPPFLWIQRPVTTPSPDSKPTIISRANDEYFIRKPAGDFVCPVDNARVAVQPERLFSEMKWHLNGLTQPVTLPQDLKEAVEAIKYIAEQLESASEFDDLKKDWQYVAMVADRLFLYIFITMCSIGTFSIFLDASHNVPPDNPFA

For 20-methyl spirolide-G, the IC50 is 2.1 nM on α4β2 nAChR, 0.36 nM in series [1] and 0.48 nM on human α7 nAChR subtype [2].

For “28-O-palmitoyl ester of pinnatoxin-G [Palmitate PnTX-G]”, the IC50 in series [1] was 0.97 nM.

In the case of `C=C1CCCC2=NCC(C)C(C)CC23CCC(C2C=C(C)C(=O)O2)=C(C)C3/C=C(\C)C(O)CC2CCC3(CCC4(OC(CCC4O)C1)O3)O2` (stereo not shown) [13,19-didesmethyl spirolide-C], the IC50 on α4β2 nAChR is 6.26 nM; in series [1], 0.2 nM; on human α7 nAChR subtype [2] it was 0.25 nM.

As to `C=C1CCCC2=NCC(C)C(C)CC23CCC(C2C=C(C)C(=O)O2)=C(C)C3/C=C(/C)C(O)CC2CCC3(CCC4(OC(CCC4(C)O)C1)O3)O2` (stereo not shown) [13-desmethyl spirolide-C], the IC50 on α4β2 nAChR was 3.9 nM; in series [1], 0.51 nM; at human α7 nAChR subtype [2] it was 0.18 nM.

In the case of `C=C1CCCC2=NC[C@H](C)[C@@H](C)C[C@@]23CCC(C(=O)O)=C[C@@H]3[C@@H]2O[C@]3(C[C@H]4CCC[C@@]5(CC[C@@]6(O[C@@H](CC[C@@]6(C)O)C1)O5)O4)C[C@@H](C)[C@@H](O)[C@H]2O3` [Pinnatoxine-A], the IC50 at α4β2 nAChR is 30.4 nM; in series [1], 5.53 nM; on human α7 nAChR subtype [2] it was 0.107 nM. Further, on human α7 nAChR subtype [3] (selectivity α7 vs muscle-type), the “antagonistic activity against human α7 nAChR, times more potent than towards muscle-type (α1)2β1γδ nAChR” value is given as 50 times. Also, on human α7 nAChR subtype [3] (selectivity α7 vs α4β2), the “antagonistic activity against human α7 nAChR, times more potent than against the human neuronal α4β2 nAChR subtype” value was ~ 300 times.

For `C=CC1=C[C@@H]2[C@@H]3O[C@]4(C[C@H]5CCC[C@@]6(CC[C@@]7(O[C@@H](CC[C@@]7(C)O)CC(=C)CCCC7=NC[C@H](C)[C@@H](C)C[C@@]72CC1)O6)O5)C[C@@H](C)[C@@H](O)[C@H]3O4` [Pinnatoxine-G], the IC50 at α4β2 nAChR is 4.9 nM; in series [1], 3.82 nM; on human α7 nAChR subtype [2], 5.06 nM.

For the molecule `C=C1CCCC2OC(CC3=CC4/C(C)=C/CC(C)CC(/C=C(\C)C(O)C5CC(O)C(O)C(CCC(O)/C=C/C(C)=C/CCC6=NCCC(C3)C64C)O5)OC(=O)CC3CC(O)C(O3)C(O)C1)CC(O)C2O` (stereo not shown) [Prorocentrolide], the IC50 in series [1] was 186 nM; at human α7 nAChR subtype [2], 1660 nM.

As for `C=C1CCCC2=NC[C@H](C)[C@@H](C)C[C@@]23CCC([C@@H]2CCC(=O)O2)=C[C@@H]3[C@@H]2O[C@@]3(C[C@@H](C)C[C@H]2O3)C[C@@H]2O[C@]3(CC[C@@]4(O[C@@H](CC[C@@]4(C)O)C1)O3)C[C@H](C)[C@@H]2O` [pinnatoxin-F], the IC50 in the series with P338 leukemia cell line is > 1000 nM.

For the molecule Gymnodimine-A, the IC50 on α4β2 nAChR is 0.9 nM; in series [1] it was 2.8 nM. For the same molecule, the “cytotoxic, concentration region” value in series [4] is on record as “micromolar region”.

On to portimine B, for which the “cytotoxic activities, order of magnitude” value in the series on cancer cell lines is listed as ~10^-7 M.
